Test systems include TK-10; MCF7; HCT-116; HT-29; HOP-92; SF-295; CAKI-1; NCI-H226; NCI/ADR-RES; HOP-62; SK-OV-3; SNB-19; SNB-75; K562; U-251; HL-60; SK-MEL-2; CCRF-CEM; SR; SNB-78.
Holding throughout (assay): NCI-60 cell line screen, 48 h

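All cell lines were grown in 96-well plates and treated with compound for 48 hours. GI50: concentration for 50% inhibition of growth.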 The source made the active and inactive calls. No stated cut-off is given here; in the data, active = GI50 up to about 1.1 µM and inactive = higher.

For the compound `CCOC(=O)/C(=N\Nc1ccc(-n2c(C)nc3ccccc3c2=O)cc1)C(C)=O`, the GI50 with TK-10 was 20.9 µM (inactive); in the test with MCF7, 37.7 µM (inactive); in the test on HCT-116, 36 µM (inactive); in the test with HT-29, 53.6 µM (inactive); in the test with HOP-92, 11.9 µM (inactive); in the test with SF-295, 33 µM (inactive). Moreover, the GI50 in the test on CAKI-1 is > 100 µM (inactive); in the test with NCI-H226, 18.7 µM (inactive); with NCI/ADR-RES it was 18.1 µM (inactive); in the test on HOP-62, 40.2 µM (inactive); in the test on SK-OV-3, 74 µM (inactive); with SNB-19, > 100 µM (inactive). Further, the GI50 is 17.2 µM (inactive) in the test on SNB-75; 32.6 µM (inactive) with K562; > 100 µM (inactive) in the test on U-251; 14 µM (inactive) with HL-60; 54.5 µM (inactive) with SK-MEL-2; 40.3 µM (inactive) in the test on CCRF-CEM. In the test on SR, the GI50 is 33.3 µM (inactive).

Regarding `NC(=O)c1csc(C2C=CC(CO)O2)n1` (centres undefined), the GI50 was > 100 µM (inactive) in the test with TK-10; > 100 µM (inactive) in the test on HCT-116; > 100 µM (inactive) in the test on HT-29; > 100 µM (inactive) with HOP-92; > 10 µM (inactive) in the test with SF-295; > 100 µM (inactive) in the test with SNB-78. The GI50 in the test with CAKI-1, in the test with NCI-H226, with HOP-62, in the test with SK-OV-3, in the test with SNB-19 and in the test with K562 was > 100 µM (inactive) throughout. Also, the GI50 in the test on U-251, in the test on HL-60, in the test on SK-MEL-2 and in the test with CCRF-CEM was > 100 µM (inactive) each time.

`NC1CC(=O)c2c(I)sc(I)c21` (centres undefined): the GI50 in the test with TK-10 is 19 µM (inactive); in the test with MCF7 it was 25.4 µM (inactive); in the test with HCT-116 it was 12.4 µM (inactive); with HT-29 it was 20.2 µM (inactive); in the test on HOP-92 it was 22.8 µM (inactive); in the test with SF-295 it was 21 µM (inactive). Besides, the GI50 in the test with CAKI-1 was 11.6 µM (inactive); in the test with NCI-H226 it was 19.1 µM (inactive); in the test on NCI/ADR-RES, 26.9 µM (inactive); with HOP-62, 19.1 µM (inactive); in the test on SK-OV-3, 44.5 µM (inactive); in the test with SNB-19, 23.8 µM (inactive). Moreover, the GI50 with SNB-75 was 20.6 µM (inactive); in the test with K562 it was 8.95 µM (inactive); in the test with U-251, 9.79 µM (inactive); in the test on HL-60 it was 4.24 µM (inactive); with SK-MEL-2, 17.9 µM (inactive); with CCRF-CEM, 3.27 µM (inactive). Besides, the GI50 with SR was 13.4 µM (inactive).

With `O=C(CC1(O)C(=O)Nc2c(Cl)ccc(Cl)c21)c1ccc(Cl)cc1` (centres undefined), the GI50 in the test with TK-10 was > 100 µM (inactive); in the test with HCT-116 it was 29.4 µM (inactive); with HT-29, 28.2 µM (inactive); with HOP-92 it was 37.8 µM (inactive); in the test on SF-295, 34.5 µM (inactive); in the test with SNB-78 it was 49.1 µM (inactive). For the same compound, the GI50 is 51.1 µM (inactive) with CAKI-1; 38.5 µM (inactive) with NCI-H226; 32 µM (inactive) in the test with HOP-62; 34.8 µM (inactive) with SK-OV-3; 67.8 µM (inactive) in the test on SNB-19; 26.6 µM (inactive) in the test on SNB-75. In addition, the GI50 in the test with U-251 is 29.2 µM (inactive); in the test on SK-MEL-2, 25.2 µM (inactive).

For `Clc1ccc(C2C3COc4ccccc4C3=NN2c2ccccc2)cc1` (centres undefined), the GI50 was > 100 µM (inactive) in the test on TK-10; 3.84 µM (inactive) with MCF7; 33.2 µM (inactive) with HCT-116; 29.4 µM (inactive) with HT-29; > 100 µM (inactive) with HOP-92; > 100 µM (inactive) in the test on SF-295. The GI50 in the test on CAKI-1 is 58.9 µM (inactive); in the test with NCI-H226 it was 30 µM (inactive); in the test with NCI/ADR-RES, 29.7 µM (inactive); in the test on HOP-62, > 100 µM (inactive); with SK-OV-3, > 100 µM (inactive); in the test with SNB-19, > 46.9 µM (inactive). In addition, the GI50 with SNB-75 was > 70.3 µM (inactive); in the test with K562, 3.19 µM (inactive); in the test on U-251, 36.1 µM (inactive); with HL-60, 27.4 µM (inactive); in the test with SK-MEL-2, > 75.3 µM (inactive); with CCRF-CEM, 2.38 µM (inactive). The GI50 in the test on SR is 0.198 µM (active).

`CCCNCCCCC(NC(C)=O)C(=O)NCc1ccccc1` (centres undefined): the GI50 in the test with TK-10, in the test on HCT-116, with HT-29, in the test with HOP-92, with SF-295 and with SNB-78 was > 100 µM (inactive) each time. Besides, the GI50 in the test with CAKI-1 was > 100 µM (inactive); with NCI-H226, > 100 µM (inactive); in the test with HOP-62, > 100 µM (inactive); with SK-OV-3 it was > 100 µM (inactive); in the test with SNB-19, > 100 µM (inactive); in the test with SNB-75, 25.2 µM (inactive). Besides, the GI50 in the test on K562, in the test with U-251, with SK-MEL-2 and in the test on CCRF-CEM was > 100 µM (inactive) throughout.

Turning to `CCOP(=O)(OCC)/C(C#N)=C/c1[nH]cnc1C`, the GI50 in the test with TK-10, in the test on MCF7, in the test on HCT-116, in the test with HT-29, in the test on HOP-92 and in the test on SF-295 was > 100 µM (inactive) in each case. For the same compound, the GI50 in the test with CAKI-1, with NCI-H226, in the test with NCI/ADR-RES, in the test on HOP-62, in the test on SK-OV-3 and with SNB-19 was > 100 µM (inactive) each time. Further, the GI50 in the test on SNB-75, with K562, in the test on U-251, in the test with HL-60, in the test with SK-MEL-2 and in the test with CCRF-CEM was > 100 µM (inactive) each time. Besides, the GI50 with SR is > 100 µM (inactive).

As for `O=C(N/C(=C\c1ccc(/C=C(\NC(=O)c2ccccc2)c2nc3ccccc3[nH]2)cc1)c1nc2ccccc2[nH]1)c1ccccc1`, the GI50 in the test with TK-10, in the test on HCT-116, with HT-29, in the test on HOP-92, in the test with SF-295 and with SNB-78 was > 100 µM (inactive) in each case. Besides, the GI50 in the test on CAKI-1, with HOP-62, in the test with SK-OV-3, in the test with SNB-19, in the test on SNB-75 and in the test on K562 was > 100 µM (inactive) in each case. Moreover, the GI50 in the test with U-251, with SK-MEL-2 and in the test with CCRF-CEM was > 100 µM (inactive) in each case.

As for `Cc1[nH]c2ccccc2c1/C=N/c1ccc(/N=C/c2c(C)[nH]c3ccccc23)cc1`, the GI50 with TK-10 is 90.4 µM (inactive); in the test on MCF7, 16.5 µM (inactive); in the test with HCT-116, 17.5 µM (inactive); in the test on HT-29, 34 µM (inactive); in the test with HOP-92 it was 25.5 µM (inactive); in the test on SF-295 it was 40.6 µM (inactive). For the same compound, the GI50 is 38.7 µM (inactive) with CAKI-1; 14 µM (inactive) in the test with NCI-H226; 80.5 µM (inactive) in the test on NCI/ADR-RES; 25.1 µM (inactive) with HOP-62; 49.8 µM (inactive) with SK-OV-3; 61.9 µM (inactive) in the test with SNB-19. Besides, the GI50 was 48.3 µM (inactive) with SNB-75; 21.2 µM (inactive) in the test with K562; 29.6 µM (inactive) with U-251; 14.7 µM (inactive) in the test on HL-60; 23.9 µM (inactive) in the test with SK-MEL-2; 15.4 µM (inactive) in the test with CCRF-CEM. The GI50 in the test with SR is 19.2 µM (inactive).

As for `COC1=CCC2=C(CCN(C(=O)C3CC3)C2Cc2ccc(OC)c(O)c2)C1` (centres undefined), the GI50 was 67.1 µM (inactive) with TK-10; 33.2 µM (inactive) in the test with MCF7; 36.6 µM (inactive) with HCT-116; 45.9 µM (inactive) with HT-29; 27.9 µM (inactive) with HOP-92; 57.8 µM (inactive) in the test on SF-295. Also, the GI50 in the test with CAKI-1 was 83.4 µM (inactive); in the test with NCI-H226, 89.3 µM (inactive); in the test on NCI/ADR-RES it was 19 µM (inactive); in the test with HOP-62, 61.8 µM (inactive); in the test on SK-OV-3, > 100 µM (inactive); in the test with SNB-19, > 100 µM (inactive). Further, the GI50 in the test on SNB-75 is 14.9 µM (inactive); with K562 it was 25.8 µM (inactive); in the test with U-251, 86.7 µM (inactive); with HL-60 it was 26.7 µM (inactive); in the test on SK-MEL-2 it was 38.3 µM (inactive); with CCRF-CEM, 34 µM (inactive). The GI50 in the test on SR was 4.8 µM (inactive).

As to `COc1ccc2c(c1)N(CCC1CCCCN1C)c1ccccc1S2` (centres undefined) [OXYRIDAZINE], the GI50 in the test with TK-10 was 14.5 µM (inactive); in the test on MCF7, 11.4 µM (inactive); in the test with HCT-116, 12.8 µM (inactive); with HT-29 it was 5.12 µM (inactive); with HOP-92, 9.08 µM (inactive); with SF-295 it was 16 µM (inactive). Moreover, the GI50 with CAKI-1 was 9.48 µM (inactive); in the test on NCI-H226 it was 23.6 µM (inactive); with NCI/ADR-RES, 12 µM (inactive); in the test with HOP-62 it was 15.8 µM (inactive); with SK-OV-3, 16.3 µM (inactive); in the test on SNB-19, 15.2 µM (inactive). Also, the GI50 in the test on SNB-75 is 11.6 µM (inactive); in the test with K562, 4.37 µM (inactive); with U-251, 11.3 µM (inactive); with HL-60, 9.14 µM (inactive); with SK-MEL-2, 14.7 µM (inactive); in the test on CCRF-CEM, 10.1 µM (inactive). In the test on SR, the GI50 is 5.73 µM (inactive).

These data come from ChEMBL document CHEMBL1201862, “PubChem BioAssay data set” (2004).
